Results: patent publication US20090281137A1, “INDOL-2-ONE DERIVATIVES FOR THE TREATMENT OF CENTRAL NERVOUS DISORDERS, GASTROINTESTINAL DISORDERS AND CARDIOVASCULAR DISORDERS” (priority 2004, published 2009)
Structures can show the parent of a compound that is named as a salt.

Legend:
[1] = target: T1, 5-HT1A receptors (Rattus norvegicus, UniProt P19327); test: 5-HT1A receptor binding experiment; conditions: isolated frontal cortex membrane preparation of rats, tritiated 8-OH-DPAT ligand, 25° C., 30 minutes
T1 construct: from tissue; host or cells: rat frontal cortex membrane preparation
T1 sequence (P19327 1-422): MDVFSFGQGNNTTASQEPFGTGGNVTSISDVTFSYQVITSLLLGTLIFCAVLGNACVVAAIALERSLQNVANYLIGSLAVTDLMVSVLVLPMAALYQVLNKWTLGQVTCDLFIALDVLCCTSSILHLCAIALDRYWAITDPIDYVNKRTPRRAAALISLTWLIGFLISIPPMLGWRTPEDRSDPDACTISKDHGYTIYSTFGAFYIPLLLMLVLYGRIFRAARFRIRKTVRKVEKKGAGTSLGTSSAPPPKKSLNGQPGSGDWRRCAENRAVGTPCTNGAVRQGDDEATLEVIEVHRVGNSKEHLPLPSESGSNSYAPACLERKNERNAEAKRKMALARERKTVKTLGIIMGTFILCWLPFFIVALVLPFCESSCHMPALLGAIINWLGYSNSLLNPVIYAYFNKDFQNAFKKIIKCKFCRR
Experimental: Binding of the compounds of the general Formula (I) to 5-HT1A receptors was investigated according to the method of Peroutka (S. J. Peroutka: J. Neurochem. 47, p. 529 (1986)).
Receptor bindings were determined from isolated frontal cortex membrane preparation of rats by using tritiated 8-hydroxy-N,N-dipropyl-2-amino-tetraline (8-OH-DPAT) ligand. For the determination of non-specific binding 10 μM serotonin creatinine sulfate was used. The following conditions were applied: incubation […] volume: 250 μl, incubation temperature: 25° C., incubation time: 30 minutes. The reaction was terminated by the addition of 9 ml of 50 mM ice-cold TRIS-HCl buffer (pH=7.7) and quick vacuum filtration using Whatman GFIB fibreglass filtering paper. Radioactivity of the filter boards was measured with the aid of a liquid scintillation spectrometer.
IC50 is the concentration whereby the difference between whole binding and non-specific binding in the presence of 10 μM serotonin creatinine sulfate is 50%. The compounds with an IC50 value smaller than […] were considered effective in this test.

[2] = test system: Male Sprague-Dawley rats; test: Elevated plus-maze in rats; type: in vivo; conditions: p.o., 60 min after treatment, 5 min test, increase in time spent in or number of entries into the open arms
From the text: The anxiolytic effect of the compounds according to the invention was investigated on rats according to the so-called elevated plus-maze test (S. Pelow, P. Chopin, S. E. File, J. Briley: Neurosci. Methods 14, p. 149 (1985)).
A wooden cross elevated to 50 cm above the floor, 15 cm wide with 100 cm long arms was used for the experiments. The sides and ends of two opposite arms of the cross were equipped with 40 cm high walls, however, the arms were open to the 15 cm×15 cm central area (closed arms). The two other opposite arms were not encircled by walls (open arms).
Male Sprague-Dawley rats weighing 200-220 g were used for the experiments. The animals were placed in the central area of the equipment 60 min after treatment and the following four parameters have been observed for the 5 min test time: […]
time spent in the open arms (sec), time spent in the closed arms (sec), number of entries into the open arms, number of entries into the closed arms.
The effect was expressed as percent increase in either the time spent in the open arms or number of entries into the open arms. MEDs (minimal effective doses) were determined for each compound.

SMILES | melting point [°C] | IC50 [1] [nM] | MED (minimal effective dose) [2]
CCC1(CCCCN2CC=C(c3ccc(Cl)cc3)CC2)C(=O)Nc2ccccc21 (stereo not drawn) | 142 to 145 |  | 
CCC1(CCCCN2CC=C(c3cccc(Cl)c3)CC2)C(=O)Nc2ccc(F)cc21 (stereo not drawn) | 112 to 114 |  | 
CCC1(CCCCN2CC=C(c3ccc(Cl)cc3)CC2)C(=O)Nc2ccc(F)cc21 (stereo not drawn) | 146 to 148 |  | 
CCC1(CCCCN2CC=C(c3ccc(F)cc3)CC2)C(=O)Nc2ccccc21 (stereo not drawn) (as salt: hydrochloride) [Example 39, 3-Ethyl-3-{4-[4-(4-fluorophenyl)-1,2,3,6-tetrahydropyridin-1-yl]-butyl}-1,3-dihydro-2H-indol-2-one monohydrochloride] | 108 to 111 |  | 
CCC1(CCCN2CCc3sccc3C2)C(=O)Nc2ccccc21 (stereo not drawn) [Example 23, 3-[3-(6,7-Dihydro-4H-thieno[3,2-c]pyridin-5-yl)-propyl]-3-ethyl-1,3-dihydro-2H-indol-2-one] | 130 to 132 |  | 
CCC1(CCCN2CCc3sccc3C2)C(=O)Nc2ccc(Cl)cc21 (stereo not drawn) [Example 24, 5-Chloro-3-[3-(6,7-dihydro-4H-thieno[3,2-c]-pyridin-5-yl)-propyl]-3-ethyl-1,3-dihydro-2H-indol-2-one] | 66 to 69 |  | 
CCC1(CCCCN2CCc3sccc3C2)C(=O)Nc2ccc(Cl)cc21 (stereo not drawn) [Example 26, 5-Chloro-3-[4-(6,7-dihydro-4H-thieno[3,2-c]-pyridin-5-yl)-butyl]-3-ethyl-1,3-dihydro-2H-indol-2-one monohydrochloride] |  | > 100 | 
CCC1(CCCCN2CCc3sccc3C2)C(=O)Nc2ccc(Br)cc21 (stereo not drawn) [Example 27, 5-Bromo-3-[4-(6,7-dihydro-4H-thieno[3,2-c]pyridin-5-yl)-butyl]-3-ethyl-1,3-dihydro-2H-indol-2-one] | 149 to 151 |  | 
CC(C)CC1(CCCCN2CCc3sccc3C2)C(=O)Nc2ccccc21 (stereo not drawn) [Example 28, 3-[4-(6,7-Dihydro-4H-thieno[3,2-c]pyridin-5-yl)-butyl]-3-isobutyl-1,3-dihydro-2H-indol-2-one] | 114 to 116 |  | 
CCC1(CCCCN2CC=C(c3ccc(F)cc3)CC2)C(=O)Nc2ccccc21 (stereo not drawn) [Example 39, 3-Ethyl-3-{4-[4-(4-fluorophenyl)-1,2,3,6-tetrahydropyridin-1-yl]-butyl}-1,3-dihydro-2H-indol-2-one monohydrochloride] |  |  | 0.01 mg/kg p.o.

The next lines start with results.

melting point [°C] | IC50 [1] [nM] | SMILES | MED (minimal effective dose) [2]
143 to 144 |  | CCC1(CCCCN2CCc3sccc3C2)C(=O)Nc2ccccc21 (stereo not drawn) (as salt: hydrochloride) [Example 29, 3-[4-(6,7-Dihydro-4H-thieno[3,2-c]pyridin-5-yl)-butyl]-3-ethyl-1,3-dihydro-2H-indol-2-one monohydrochloride] | 
96 to 98 |  | CCC1(CCCCCN2CCc3sc(Cl)cc3C2)C(=O)Nc2ccccc21 (stereo not drawn) (as salt: hydrochloride) [Example 37, 3-[5-(2-Chloro-6,7-dihydro-4H-thieno[3,2-c]-pyridin-5-yl)-pentyl]-3-ethyl-1,3-dihydro-2H-indol-2-one monohydrochloride] | 
193 to 195 |  | CCC1(CCCCCN2CCc3sccc3C2)C(=O)Nc2ccccc21 (stereo not drawn) (as salt: oxalate) [Example 36, 3-[5-(6,7-Dihydro-4H-thieno[3,2-c]pyridin-5-yl)-pentyl]-3-ethyl-1,3-dihydro-2H-indol-2-one monooxalate] | 
 | > 100 | CCC1(CCCCN2CCc3sccc3C2)C(=O)Nc2ccccc21 (stereo not drawn) [Example 29, 3-[4-(6,7-Dihydro-4H-thieno[3,2-c]pyridin-5-yl)-butyl]-3-ethyl-1,3-dihydro-2H-indol-2-one monohydrochloride] | 
138 to 140 |  | CCC1(CCCCN2CCc3sccc3C2)C(=O)Nc2ccc(C)cc21 (stereo not drawn) [Example 30, 3-[4-(6,7-Dihydro-4H-thieno[3,2-c]pyridin-5-yl)-butyl]-3-ethyl-5-methyl-1,3-dihydro-2H-indol-2-one] | 
194 to 196 |  | CCC1(CCCCN2CCc3sccc3C2)C(=O)Nc2c(Cl)cc(F)cc21 (stereo not drawn) [Example 33, 7-Chloro-3-[4-(6,7-dihydro-4H-thieno[3,2-c]-pyridin-5-yl)-butyl]-3-ethyl-5-fluoro-1,3-dihydro-2H-indol-2-one] | 
117 to 119 |  | CCC1(CCCCN2CCc3sc(Cl)cc3C2)C(=O)Nc2ccccc21 (stereo not drawn) [Example 34, 3-[4-(2-Chloro-6,7-dihydro-4H-thieno[3,2-c]-pyridin-5-yl)-butyl]-3-ethyl-1,3-dihydro-2H-indol-2-one] | 
155 to 157 |  | CCC1(CCCCN2CCc3sccc3C2)C(=O)Nc2cc(F)c(Cl)cc21 (stereo not drawn) [Example 35, 5-Chloro-3-[4-(6,7-dihydro-4H-thieno[3,2-c]-pyridin-5-yl)-butyl]-3-ethyl-6-fluoro-1,3-dihydro-2H-indol-2-one] | 
 | > 100 | CCC1(CCCCCN2CCc3sccc3C2)C(=O)Nc2ccccc21 (stereo not drawn) [Example 36, 3-[5-(6,7-Dihydro-4H-thieno[3,2-c]pyridin-5-yl)-pentyl]-3-ethyl-1,3-dihydro-2H-indol-2-one monooxalate] | ≦1.0 mg/kg p.o.
 | > 100 | CCC1(CCCCCN2CCc3sc(Cl)cc3C2)C(=O)Nc2ccccc21 (stereo not drawn) [Example 37, 3-[5-(2-Chloro-6,7-dihydro-4H-thieno[3,2-c]-pyridin-5-yl)-pentyl]-3-ethyl-1,3-dihydro-2H-indol-2-one monohydrochloride] | 
